Source: publication PMC8056388 (ACS Chemical Biology, 2021)
pEC50: −log10 of the molar value.

Key:
PqsE S285A [1] = target: T1, PqsE S285A (Pseudomonas aeruginosa, UniProt P20581, S285A); type: biochemical
P. aeruginosa PA14 = type: cell-based; settings: P. aeruginosa PA14 cultures, 100 μM compound, 17 h
WT PqsE [2] = target: T2, WT PqsE (Pseudomonas aeruginosa, UniProt P20581); experiment: biochemical; type: binding
PqsE S285A [3] = target: T1, PqsE S285A; type: binding
PqsE-RhlR interaction = PqsE-RhlR interaction (Pseudomonas aeruginosa, UniProt P20581); experiment: PqsE-RhlR interaction pull-down assay; type: binding; settings: PqsE:compound 1:1 and 1:2 molar ratios, SDS-PAGE
phzH = experiment: qRT-PCR of phzH transcript; settings: P. aeruginosa PA14, 100 μM compound
PqsE S160A = PqsE S160A (Pseudomonas aeruginosa, UniProt P20581, S160A); type: binding
hcnA = experiment: qRT-PCR of hcnA transcript; settings: P. aeruginosa PA14, 100 μM compound
WT PqsE [4] = target: T2, WT PqsE; experiment: Fluorescence polarization binding of BB562; settings: purified WT PqsE
P. aeruginosa PAO1 = settings: cited from earlier work

apparent binding constant (Kapp), in words (WT PqsE [4])	SMILES	projected IC50 for PqsE S285A relative to WT PqsE (PqsE S285A [1])	pyocyanin production (P. aeruginosa PA14)	pEC50 (WT PqsE [2])	ΔTm PqsE S285A (PqsE S285A [3])	suppression of the interaction between PqsE and RhlR (PqsE-RhlR interaction)	transcription of phzH (phzH)	ΔTm PqsE S160A (PqsE S160A) [°C]	transcription of hcnA (hcnA)	pyocyanin production (P. aeruginosa PAO1)
–	O=C(Nc1cccc(-c2ccn[nH]2)c1)c1cccc2cn[nH]c12 [BB391]	at least a log unit higher	neither molecule caused any decrease in pyocyanin production	6.59	lost the ability to shift the Tm	neither BB391 nor BB393 suppressed the interaction	neither molecule drove altered transcription	5.0	neither molecule drove altered transcription	–
midnanomolar range	O=C(NCCCn1cc(-c2ccc(NC(=O)c3cccc4cn[nH]c34)cc2)nn1)c1ccc2c(c1)C(=O)OC21c2ccc(O)cc2Oc2cc(O)ccc21 [BB562]	–	–	–	–	–	–	–	–	–
–	O=C(O)c1ccccc1-c1cccnc1 [C1, 2-(pyridin-3′-yl) benzoic acid, reference compound]	–	–	–	8.5 °C	–	–	12.1	–	did not affect pyocyanin production
